Measurements as given in patent US20080319000A1, “Use of 3,1IB-Cis-Dihydrotetrabenazine for the Treatment of Symptoms of Huntingtons Disease” (CAMBRIDGE LABORATORIES (IRELAND) LIMITED, priority 2005, published 2008).

Assays:
Male Sprague-Dawley rats = assay: Spontaneous locomotor activity in rats (sedative properties); type: in vivo; conditions: for Inactivity Duration / Large movements Duration / Large movements Occurrence: rats, 20 min period, mean ± SEM n=12
Protocol: A study was carried out in rats to determine whether the dihydrotetrabenazine isomers of the invention have sedative properties. […] Male Sprague-Dawley rats, (Charles River Laboratories, Saint-Germain/L'Arbresle, France), weighing 200-250 g at the beginning of the study, were used for the studies. […] The rats were allowed to acclimatize to their conditions for at least five days before commencement of the study. The rats received food ([…], France, ref. 811002) and water (tap water in water bottle) ad libitum. Solutions of each test compound in corn oil were freshly prepared on the day of the experiment. Haloperidol was prepared in hydroxyethylcellulose, 0.5% in deionized water. Either the vehicle or the test compounds were administered as a single dose (0.3, 1, 3 and 10 mg/kg, 2 mL/kg i.p.). The reference compound haloperidol (1 mg/kg) was administered i.p. […] The animals were placed in plexiglass cages under a video camera in a room with low light intensity (maximum 50 lux). At forty five minutes and 3 hours after administration, locomotor activity was determined during 20 minute periods using a video image analyzer (Videotrack, View Point, France). […] The number and duration of ambulatory movements and duration of inactivity was measured. At the end of the locomotor activity measurement (45 minutes and 3 hours), palpebral closure and arousal were be scored as follows in the plexiglass cage: […] Image tracking was performed using a video camera placed above the plexiglass cage, recording overall locomotor activity. […] The results were expressed as the means ±SEMs of the 12 individual values. Statistical analyses were carried out using ANOVA (one way) and Dunnett's t-test and with the non parametric test of Kruskal-Wallis followed by a Mann & Whitney U-test for the sedation cotation. A p value of p<0.05 was taken as indicating significance. Group size n=12 Group 1: Reference, haloperidol (1 mg/kg i.p.) Group 2: Vehicle control group (2 ml/kg i.p.) Group 3: tetrabenazine (0.3 mg/kg i.p) Group 4: tetrabenazine (1 mg/kg i.p) Group 5: tetrabenazine (3 mg/kg i.p) Group 6: tetrabenazine (10 mg/kg i.p) Group 7: […]

VMAT1 = target: T1, VMAT1 (Homo sapiens, UniProt P54219); assay: VMAT1 affinity; type: binding
T1 sequence (P54219 1-525): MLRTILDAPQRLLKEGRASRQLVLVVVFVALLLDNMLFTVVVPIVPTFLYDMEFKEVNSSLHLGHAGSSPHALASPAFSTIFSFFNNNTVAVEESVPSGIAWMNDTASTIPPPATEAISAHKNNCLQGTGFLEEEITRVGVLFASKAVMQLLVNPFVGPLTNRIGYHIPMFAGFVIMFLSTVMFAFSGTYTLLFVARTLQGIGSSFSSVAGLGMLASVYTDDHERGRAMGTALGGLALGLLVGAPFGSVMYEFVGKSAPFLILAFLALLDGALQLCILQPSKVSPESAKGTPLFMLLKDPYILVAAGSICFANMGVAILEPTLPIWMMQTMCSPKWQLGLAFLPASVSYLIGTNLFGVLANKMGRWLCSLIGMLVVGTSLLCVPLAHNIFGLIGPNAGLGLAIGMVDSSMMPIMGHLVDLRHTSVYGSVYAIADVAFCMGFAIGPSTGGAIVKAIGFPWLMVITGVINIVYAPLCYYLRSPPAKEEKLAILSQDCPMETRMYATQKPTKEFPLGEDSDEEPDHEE

[1] = 0.3 mg/kg i.p., 45 minutes after administration
[2] = 0.3 mg/kg i.p., 3 hours after administration
[3] = 1 mg/kg i.p., 45 minutes after administration
[4] = 1 mg/kg i.p., 3 hours after administration
[5] = 3 mg/kg i.p., 45 minutes after administration
[6] = 3 mg/kg i.p., 3 hours after administration
[7] = 10 mg/kg i.p., 45 minutes after administration
[8] = 10 mg/kg i.p., 3 hours after administration

Which results are given for COc1cc2c(cc1OC)C1CC(=O)C(CC(C)C)CN1CC2 (racemic) [tetrabenazine, 1,3,4,6,7,11b-hexahydro-9,10-dimethoxy-3-(2-methylpropyl)-2H-benzo(a)quinolizin-2-one]?
sedative effect (Male Sprague-Dawley rats; locomotor studies carried out on rats): dose related sedative effect; Inactivity Duration (Male Sprague-Dawley rats; [1]): 390.4 ± 37.4 s; Large movements Duration (Male Sprague-Dawley rats; [1]): 66.8 ± 10.7 s; Large movements Occurrence (Male Sprague-Dawley rats; [1]): 253 ± 32; Inactivity Duration (Male Sprague-Dawley rats; [2]): 545.9 ± 37.1 s; Large movements Duration (Male Sprague-Dawley rats; [2]): 24.3 ± 4.2 s; Large movements Occurrence (Male Sprague-Dawley rats; [2]): 96 ± 14; Inactivity Duration (Male Sprague-Dawley rats; [3]): 456.5 ± 50.5 s; Large movements Duration (Male Sprague-Dawley rats; [3]): 46.5 ± 8.6 s; Large movements Occurrence (Male Sprague-Dawley rats; [3]): 189 ± 32; Inactivity Duration (Male Sprague-Dawley rats; [4]): 556.9 ± 31.1 s; Large movements Duration (Male Sprague-Dawley rats; [4]): 21.5 ± 4.0 s; Large movements Occurrence (Male Sprague-Dawley rats; [4]): 90 ± 16; Inactivity Duration (Male Sprague-Dawley rats; [5]): 697.8 ± 39.7 s; Large movements Duration (Male Sprague-Dawley rats; [5]): 8.7 ± 5.9 s; Large movements Occurrence (Male Sprague-Dawley rats; [5]): 38 ± 25; Inactivity Duration (Male Sprague-Dawley rats; [6]): 729.9 ± 26.8 s; Large movements Duration (Male Sprague-Dawley rats; [6]): 1.7 ± 0.9 s; Large movements Occurrence (Male Sprague-Dawley rats; [6]): 9 ± 4; Inactivity Duration (Male Sprague-Dawley rats; [7]): 723.1 ± 46.5 s; Large movements Duration (Male Sprague-Dawley rats; [7]): 0.2 ± 0.2 s; Large movements Occurrence (Male Sprague-Dawley rats; [7]): 1 ± 1; Inactivity Duration (Male Sprague-Dawley rats; [8]): 762.1 ± 40.7 s; Large movements Duration (Male Sprague-Dawley rats; [8]): 0.6 ± 0.3 s; Large movements Occurrence (Male Sprague-Dawley rats; [8]): 3 ± 1; sedative effect (Male Sprague-Dawley rats; rats, 0.3, 1, 3 and 10 mg/kg i.p., 45 minutes and 3 hours after administration): dose-dependent sedative effect; affinity for VMAT1 (VMAT1): only a low affinity
